# What was measured:
# p38 = assay: MAP kinase activity by Western blot in CaCo-2 cells: phosphorylated p38; type: cell-based, human
# Method: A CaCo-2 carcinoma cell line of human colon cancer was purchased from American Type Culture Collection (ATCC), and cultured at 37° C. in the presence of 5% CO2 using a DMEM medium containing 10% FCS, 1% NEAA and 1% P/S (100 units/ml penicillin and 100 μg/ml streptomycin).
# 6×10^5 CaCo-2 cells were inoculated per dish using 6 cm dishes (NUNC), washed twice with phosphate buffered saline (PBS) (-), and then cultured in a serum-free DMEM medium containing 1% NEAA for 24 hours. Subsequently, at a final concentration of 100 μM, homoserine lactone hydrochloride and N-(3-oxododecanoyl)-L-homoserine lactone were each added, and then each solution was allowed to react for 10 minutes. Furthermore, purified acylated homoserine lactone used herein had been dissolved in DMSO in a concentration 400 times higher than the target final concentration, and then subjected to filter sterilization (φ 0.22 μm). As a control, DMSO with a final concentration of 0.25% was used. In addition, α-tubulin was used as an internal standard.
# After reaction, the product was washed twice with cold PBS (-), and then frozen at −80° C. The cells were thawed on ice. 200 μl of a lysis buffer (50 mM HEPES, pH 7.5, 50 mM NaCl, 1 mM EDTA, 1.5 mM MgCl2, 1% Triton X-100, 10% glycerin, 10 mM sodium pyrophosphate, 1 mM Na3VO4, 100 mM NaF, 1 mM PMSF, 10 μg/ml aprotinin and 10 μg/ml leupeptin) was added to the cells, and then the cells were scraped off using a scraper. The cells were allowed to stand on ice for 20 minutes, and then centrifuged at 14000 rpm at 4° C. for 15 minutes, thereby collecting the supernatant. Concentration of the collected protein was measured, and then the protein equivalent to 50 μg was subjected to SDS-PAGE. After electrophoresis, the product was blotted on a PVDF membrane. When phosphorylated ERK, JNK, p38 and Akt were measured, blocking was carried out with 0.1% Tween 20 (TBS-T) containing 5% skim milk/Tris-buffered saline. As primary antibodies, an anti-phospho-p44/42 MAP kinase antibody, an anti-phospho-SAPK/JNK antibody, an anti-phospho-p38 MAP kinase antibody, and an anti-phospho-Akt ([…]) antibody were each used. As a secondary antibody, an HRP-labeled anti-rabbit IgG antibody was used. For the α-tubulin used as an internal standard, blocking was carried out with 5% bovine serum albumin (BSA)/TBS-T, and an anti-α-tubulin (Ab-1) antibody and an HRP-labeled anti-mouse IgG antibody were used as a primary antibody and a secondary antibody, respectively. For band detection, Renaissance™ Western Blot Chemiluminescence […] Reagent Plus (NEN) or Western Blotting Luminol Reagent (SANTA CRUZ BIOTECHNOLOGY) was used.
# After cell culture, MAP kinase activity and Akt activity were analyzed by Western blot in a manner similar to that used in (1), except that N-(3-oxododecanoyl)-L-homoserine lactones in final concentrations of 0 μM (0.25% DMSO), 1 μM, 10 μM, 30 μM and 100 μM were each added and each solution was allowed to react for 10 minutes (FIG. 8).
# After cell culture, N-(3-oxododecanoyl)-L-homoserine lactone with final concentrations of 30 μM and 100 μM were added. For each case, MAP kinase activity and Akt activity were measured by Western blot in a manner similar to that in (1), except for carrying out stimulation with acylated homoserine lactone in a short time course of 0, 5, 10, 30 and 60 minutes (FIG. 11), and in a long time course of 0, 10 minutes, 60 minutes, 2 hours, 4 hours, 6 hours, 8 hours and 10 hours (FIG. 12). In the case of stimulation at 30 μM, both ERK and p38 activities increased with a peak at 10 minutes. However, while ERK activity returned to the base level within 30 minutes, p38 activity lasted until 4 hours after stimulation. The inhibition of Akt activity in the case of stimulation at 30 μM peaked at 5 minutes and lasted until 60 minutes after stimulation, and returned to the base level within 2 hours. ERK activation took place with two steps in the case of stimulation at 100 μM. […]
# [1] = tested on: PARP (poly-ADP ribose polymerase); assay: PARP activity by Western blot (cleaved PARP) in CaCo-2 cells; type: cell-based, human
# Method: The activities of caspase (caspase-3 and caspase-9) and PARP (poly-ADP ribose polymerase) were measured in a manner similar to those in Examples 1 and 2 by Western blot analysis using each of anti-activated (cleaved) caspase antibodies, that is, an anti-cleaved caspase-3 antibody, an anti-cleaved caspase-9 antibody (D330) and an anti-cleaved PARP antibody (D214).
# N-(3-oxododecanoyl)-L-homoserine lactones with final concentrations of 30 μM and 100 μM were each added to cultured CaCo-2 cells. Caspase-3, caspase-9 and PARP activities were analyzed over time by Western blot at 0 hours, 1 hour, 2 hours, 4 hours, 6 hours, 8 hours and 10 hours after culture. […] Whereas at 30 μM, activated caspase-3 began to be detected 1 hour after stimulation and the activity lasted until 4 hours after stimulation, at 100 μM the activity peaked at 6 hours and lasted until 10 hours after stimulation. Cleaved caspase-9 and cleaved PARP were detected by reprobing each membrane.
# Next, 3 hours of reaction with N-(3-oxododecanoyl)-L-homoserine lactone was carried out at concentrations of 0, 1, 10, 30, and 100 μM, and then caspase and PARP activities were measured.
structure (smiles),measurement,setting,value
CCCCCCCCCC(=O)CC(=O)N[C@H]1CCOC1=O [N-(3-oxododecanoyl)-L-homoserine lactone],p38 activity increase,"p38; 10 μM, 10 minutes",3.2 times
same,p38 activity increase,"p38; 30 μM, 10 minutes",4.4 times
same,activation of p38,"p38; 100 μM, 10 minutes",promoted
same,p38 activity increase,"p38; 100 μM, 10 minutes",5.4 times
same,concentration at which levels of phosphorylated p38 significantly increased,p38; 10 minutes,≥ 10 µM
same,p38 activity lasted until (after stimulation),p38; stimulation at 30 μM,4 h
same,time of peak p38 activity,p38; stimulation at 30 μM,10 min
same,p38 activity lasted until (after stimulation),p38; stimulation at 100 μM,8 h
same,time of peak p38 activation,p38; stimulation at 100 μM,5 min
same,cleaved PARP over time,[1]; 30 μM and 100 μM,behavior similar to that of cleaved caspase-9
same,concentration at which cleaved PARP was detected,"[1]; 3 hours of reaction, 0, 1, 10, 30 and 100 μM",≥ 30 µM

# From patent US7537906B2, “Apoptosis inducer and method of screening for a substance inhibiting acylated homoserine lactone” (priority 2003, dated 2009)
